The subject of this test is HIV-1 (H9IIIB strain). The test can be described thus: Antiviral acute infection assay in cell culture (Spread). It counts as cell-based. The note with it: Human immunodeficiency virus 1, T-lymphoid, HIV-1 H9IIIB infection of MT-4 human T-lymphoid cells in 10% FBS; mean of at least two independent experiments. The text has this:
Antiviral Assays in Cell Culture (“Spread”)
Acute Infection Assay (“Spread”) data were generated using HIV-1 (H9IIIB strain) infection of MT-4 human T-lymphoid cells in 10% FBS, and according to the methods disclosed by J. P. Vacca et al, “L-735,524: An orally bioavailable human immunodeficiency virus type 1 protease inhibitor,” Proc. Natl. Acad. Sci. USA, Vol. 91, pp. 4096-4100 (April 1994).
In turn, `COC(=O)N[C@H](C(=O)Nc1cccc(F)c1CC[C@@H]1CN[C@H](COC(=O)NCC(F)(F)F)CO1)[C@@H](c1ccc(Cl)cc1)c1ccc2c(c1)OCO2` [Example 110, (βS)-β-1,3-Benzodioxol-5-yl-4-chloro-N-(3-fluoro-2-{2-[(2R,5S)-5-({[(2,2,2-trifluoroethyl)carbamoyl]oxy}methyl)morpholin-2-yl]ethyl}phenyl)-Nα-(methoxycarbonyl)-L-phenylalaninamide] gave an EC50 of 6.9 nM. As for `O=C(C[C@@H](c1ccc(F)cc1)c1ccccc1F)Nc1cncc(F)c1CC[C@@H]1CN[C@H](COC(=O)NCC(F)(F)F)CO1` [Example 158, {(3S,6R)-6-[2-(3-fluoro-5-{[(3S)-3-(2-fluorophenyl)-3-(4-fluorophenyl)propanoyl]amino}pyridin-4-yl)ethyl]morpholin-3-yl]methyl (2,2,2-trifluoroethyl)carbamate], the figure is 34 nM; as for `O=C(CC(c1ccc(F)cc1)c1ccc(F)cc1)Nc1cncc(F)c1CC[C@@H]1CN[C@H](COC(=O)NCc2ccno2)CO1` [Example 188, {(3S,6R)-6-[2-(3-{[3,3-bis(4-fluoro-phenyl)propanoyl]amino}-5-fluoropyridin-4-yl)ethyl]morpholin-3-yl}methyl (isoxazol-5-ylmethyl)carbamate], 50 nM. The result for `NC(=O)OC[C@@H]1CO[C@H](CCc2c(F)cccc2NC(=O)CC(c2ccccc2)c2ccccc2)CN1` [Example 152, [(3S,6R)-6-(2-{2-[(3,3-diphenylpropanoyl)amino]-6-fluorophenyl}ethyl)morpholin-3-yl] methyl carbamate] reads 88 nM; that for `COC(=O)N[C@H](C(=O)Nc1cccc(F)c1CC[C@@H]1CN[C@H](COC(=O)NCC(F)(F)F)CO1)[C@@H](c1ccncc1)c1ccc(F)cc1` [Example 112, (βR)-4-Fluoro-N-(3-fluoro-2-{2-[(2R,5S)-5-({[(2,2,2-trifluoroethyl)carbamoyl]oxy}methyl)morpholin-2-yl]ethyl}phenyl)-Nα-(methoxycarbonyl)-β-pyridin-4-yl-L-phenylalaninamide], 200 nM; that for `O=C(C[C@@H](c1ccc(F)cc1)c1ccsc1)Nc1cccc(F)c1CC[C@@H]1CN[C@H](COC(=O)NCC(F)(F)F)CO1` [Example 183, {(3S,6R)-6-[2-(2-fluoro-6-{[(3S)-3-(4-fluorophenyl)-3-thiophen-3-ylpropanoyl]amino}phenyl)ethyl]morpholin-3-yl}methyl (2,2,2-trifluoroethyl)carbamate], 690 nM.

`O=C(CC(c1ccc(F)cc1)c1ccc(F)cc1)Nc1cncc(F)c1CC[C@@H]1CN[C@H](CNC(=O)OCC(F)(F)F)CO1` [Example 85, 2,2,2-trifluoroethyl ({(3R,6R)-6-[2-(3-{[3,3-bis(4-fluoro-phenyl)propanoyl]amino}-5-fluoropyridin-4-yl)ethyl]morpholin-3-yl}methyl)carbamate]: the response was half-maximal at 87 nM (EC50). The compound `COC(=O)N[C@H](C(=O)Nc1cncc(F)c1CC[C@@H]1CN[C@H](COC(=O)NCC(F)(F)F)CO1)[C@@H](c1ccc(F)cc1)c1cccc(F)c1F` [Example 302, (βS)-2,3-difluoro-β-(4-fluorophenyl)-N-(5-fluoro-4-{2-[(2R,5S)-5-({[(2,2,2-trifluoroethyl)carbamoyl]oxy}methyl)morpholin-2-yl]ethyl}pyridin-3-yl)-Nα-(methoxy-carbonyl)-L-phenylalaninamide] returned a concentration for a half-maximal effect (EC50) of 15 nM. The compound `N#Cc1ccc([C@H](c2ccc(F)c(F)c2)[C@H](N)C(=O)Nc2cccc(F)c2CC[C@@H]2CN[C@H](COC(=O)NCC(F)(F)F)CO2)cc1` [Example 102, (βR)-β-(4-Cyanophenyl)-3,4-difluoro-N-(3-fluoro-2-{2-[(2R,5S)-5-({[(2,2,2-trifluoroethyl)carbamoyl]oxy}methyl)morpholin-2-yl]ethyl}phenyl)-L-phenylalaninamide] had an EC50 of 37 nM.

Broadly, the EC50 is the concentration giving half of the maximal effect.
